Measured values published in publication PMC11554305, “Functional identification of soluble uric acid as an endogenous inhibitor of CD38” (eLife, 2024).

Key:
[1] = molecular target: T1, recombinant human CD38 (hCD38) (Homo sapiens, UniProt P28907); assay: CD38 hydrolase activity, recombinant hCD38 (ε-NAD+ substrate); format: biochemical; settings: sUA 0–500 μM, Figure 1B
T1 construct: the commercial recombinant hCD38 without a transmembrane region was partially used in this study; purchased Sino Biological 10818-H08H
T1 sequence (P28907 43-300 limits assumed): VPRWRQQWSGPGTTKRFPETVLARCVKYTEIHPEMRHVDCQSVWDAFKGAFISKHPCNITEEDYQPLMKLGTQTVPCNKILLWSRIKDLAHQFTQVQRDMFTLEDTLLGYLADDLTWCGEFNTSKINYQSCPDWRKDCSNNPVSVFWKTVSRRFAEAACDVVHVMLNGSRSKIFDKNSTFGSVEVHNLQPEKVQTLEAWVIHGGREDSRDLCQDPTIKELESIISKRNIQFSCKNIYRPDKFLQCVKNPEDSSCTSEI
Protocol: (§1) The hydrolase activity of CD38 was measured according to a previous report ([de Oliveira et al., 2018]) with minor modifications. CD38 hydrolase activity was measured using 50 μM ε-NAD^+ as a substrate in hydrolase reaction buffer (250 mM sucrose, 40 mM Tris-HCl, pH 7.4). Briefly, cells or tissues were directly homogenized in blank reaction buffer on ice, and recombinant hCD38 was diluted in blank reaction buffer for subsequent assays. The tissue homogenates were centrifuged to collect the supernatant for enzyme assays. The loading volume of enzyme was 4–30 μL, the total volume of the reaction system was 3 mL. To detect enzyme inhibition, except when specified, the ligands were directly dissolved in hydrolase reaction buffer before pH adjustment, after which, the pH was immediately adjusted to 7.4. All reaction buffers, with or without ligands, were freshly prepared before each assay. For measurement of hydrolase activity, 3 mL reaction buffer containing enzyme, ε-NAD^+, and ligands at indicated concentrations was maintained at 37°C with constant stirring.
(§2) The reaction buffer for hydrolase or cyclase assays was excited at 300 nm, and fluorescence emission was measured every second at 410 nm by Shimazu RF-6000 spectrofluorometer. Hydrolase or cyclase activity was calculated from the linear portion of the time course by fitting a linear function to the data points recorded within 5 min.

CD38 = molecular target: T2, CD38 (Homo sapiens, UniProt P28907); assay: Hydrolase activity of THP-1 cells; format: biochemical; settings: sUA 0–500 μM, Figure 1—figure supplement 1A
T2 construct: cells or tissues were directly homogenized in blank reaction buffer on ice; host or cells: THP-1
T2 sequence (P28907 1-300): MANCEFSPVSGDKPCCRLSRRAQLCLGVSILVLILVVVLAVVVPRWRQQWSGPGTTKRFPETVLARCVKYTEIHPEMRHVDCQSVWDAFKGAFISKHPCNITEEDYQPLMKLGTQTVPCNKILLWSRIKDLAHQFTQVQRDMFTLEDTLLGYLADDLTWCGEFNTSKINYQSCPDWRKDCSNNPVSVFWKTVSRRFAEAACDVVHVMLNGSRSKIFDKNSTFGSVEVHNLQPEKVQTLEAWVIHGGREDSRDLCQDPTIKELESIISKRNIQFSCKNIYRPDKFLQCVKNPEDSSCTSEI
Protocol: as §1, §2

[2] = molecular target: T3, nicotinamide phosphoribosyltransferase (NAMPT) (Homo sapiens, UniProt P43490); assay: NAMPT activity (colorimetric kit); format: biochemical; settings: Figure 3—figure supplement 2A
T3 construct: purchased MBL CY-1251V2
Protocol: The activities of NAMPT and PARP were measured using commercial kits, HT Universal Colorimetric PARP Assay Kit, and CycLex NAMPT Colorimetric Assay Kit Ver.2. The solutions of ligands were freshly prepared (pH was adjusted to 7.4) and were immediately used for enzyme assays.

primed WT BMDMs = assay: Canonical inflammasome assay, IL-1β release in primed BMDMs; format: cell-based, mouse
Protocol: (§3) Human IL-1β, mouse IL-1β, IL-6, IL-18, TNF-α, and CXCL1 levels were measured according to the protocols provided by the manufacturer. Serum samples were diluted before ELISA when applicable. In this study, all the samples were frozen after collection and thawed before ELISA.
WT and CD38 KO BMDMs were primed with 100 ng/mL ultrapure LPS for 4 hr. Subsequently, primed BMDMs were pre-incubated with or without sUA for 2 hr, the cells were then washed twice with sterile PBS and were stimulated with nigericin, MSU crystals, or cLPS in serum-free RPMI-1640 medium.
(§4) After stimulation, the culture medium was collected and centrifuged at 3000 rpm, 4°C for 5 min, the supernatant was collected and stored at –30°C until ELISA.

primed THP-1 cells = assay: Canonical inflammasome assay, IL-1β release in primed THP-1 cells; format: cell-based, human
Protocol: as §3
Naïve THP-1 cells were primed with 0.5 μM phorbol 12-myristate 13-acetate for 3 hr the day before stimulation. Primed THP-1 cells were pre-incubated in RPMI-1640 medium in the presence or absence of sUA (5 or 10 mg/dL) for 2 hr. The cells were then washed twice with sterile PBS, and were stimulated with MSU crystals, cLPS, zymosan, and ATP in serum-free RPMI-1640 medium for 4 hr.
as §4

[3] = Solubility and crystal precipitation in solution; format: physicochemical
Protocol: Guanosine was dissolved in DMSO and diluted in the reaction buffer for subsequent assays.
MSU crystals were prepared by the recrystallization of oversaturated sUA according to a previous report ([Martinon et al., 2006]). Improper preparation of sUA solution may introduce crystals to cause false-positive or false-negative results. […] In this study, the sUA solution was prepared according to an improved protocol ([Ma et al., 2020]). […] Then, sUA solution was immediately filtered by 0.2 μm filters and diluted to experimental concentration (up to 10 mg/dL, 595 μM) for cell experiments. […]

uricase = molecular target: uricase; set-up: method as in Fridovich, 1965; settings: ref Fridovich, 1965; cited from earlier work

T3 sequence (P43490 whole entry): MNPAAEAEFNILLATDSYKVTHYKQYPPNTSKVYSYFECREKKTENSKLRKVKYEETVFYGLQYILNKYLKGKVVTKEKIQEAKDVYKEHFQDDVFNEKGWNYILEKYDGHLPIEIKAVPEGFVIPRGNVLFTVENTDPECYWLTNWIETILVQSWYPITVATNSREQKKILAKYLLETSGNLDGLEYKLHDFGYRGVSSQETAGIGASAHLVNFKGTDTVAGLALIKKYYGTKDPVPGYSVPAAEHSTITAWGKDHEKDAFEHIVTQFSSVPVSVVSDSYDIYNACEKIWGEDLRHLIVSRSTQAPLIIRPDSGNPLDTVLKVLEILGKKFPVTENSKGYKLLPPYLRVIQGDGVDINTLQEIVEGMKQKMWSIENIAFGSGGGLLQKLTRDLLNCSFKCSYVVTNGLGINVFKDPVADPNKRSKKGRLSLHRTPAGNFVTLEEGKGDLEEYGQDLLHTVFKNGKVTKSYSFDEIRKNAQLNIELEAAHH

SMILES	Ki [1] [µM]	Ki (CD38) [µM]	Effect on NAMPT activity [2]	Induction of IL-1β release by sUA itself (primed WT BMDMs; sUA 100, 200 and 500 μM, 6 hr)	Inflammasome activation (IL-1β release) (primed WT BMDMs; sUA 100 or 200 μM pre-incubation 2 hr)	Induction of IL-1β release by sUA itself (primed THP-1 cells)	IL-1β release after stimulation (primed THP-1 cells; sUA pre-incubation 2 hr, then MSU crystals, cLPS, zymosan or ATP)	Crystal precipitation in stock solution ([3]; 5 mg/mL in NaOH without pH adjustment, 2-month storage at 4°C)	Crystal precipitation in stock solution ([3]; 50 mg/mL in NaOH without pH adjustment)	Crystal precipitation in high-concentration stock solutions ([3]; long-term storage at 4°C)	Ki for uricase (uricase)
O=c1[nH]c(=O)c2[nH]c(=O)[nH]c2[nH]1 [sUA, uric acid]	65.7	75.5	without affecting the activities	did not induce IL-1β release	hardly suppressed inflammasome activation	did not induce IL-1β release	moderately limited IL-1β release	Visible crystals were observed	Crystals were immediately precipitated after dissolution	promoted crystal precipitation	
O=C(O)c1nc(=O)[nH]c(=O)[nH]1 [OA, oxonic acid, reference compound]											nanomolar range
